Some test systems named below: A549 NSCLC; EKVX NSCLC; HCT-116 colon; HS 578T breast; IGROV1 ovarian; LOX IMVI melanoma; MDA-MB-231 breast; MDA-MB-435; MDA-N; NCI-H522 lung; NCI/ADR-RES ovarian; OVCAR-3 ovarian; RPMI-8226 leukemia; SK-MEL-2 melanoma; SK-MEL-28 melanoma; SNB-19 CNS; UACC-257 melanoma; UACC-62 melanoma; HT29 colon; SN12C renal.
Holding throughout (test): NCI-60 cell line screen, 48 h

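Five concentrations, 48 hours, 96-well plates. TGI denotes the concentration required for complete inhibition of growth.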

For the compound `COc1ccc(NC/C=C/C(=C/COC(C)=O)OC(C)=O)cc1`, the TGI in the experiment on A549 NSCLC is 33 µM; with EKVX NSCLC it was 4.99 µM; in the experiment on HCT-116 colon, 3.55 µM; in the experiment with HS 578T breast it was 6.12 µM; with IGROV1 ovarian it was 3.56 µM; in the experiment on LOX IMVI melanoma, 4.79 µM. Further, the TGI in the experiment with MDA-MB-231 breast was 3.37 µM; in the experiment with MDA-MB-435, 3.14 µM; in the experiment on MDA-N it was 4.07 µM; in the experiment with NCI-H522 lung, 4.78 µM; in the experiment on NCI/ADR-RES ovarian, 7.04 µM; in the experiment with OVCAR-3 ovarian, 4.28 µM. Besides, the TGI with RPMI-8226 leukemia stood at 0.829 µM; in the experiment with SK-MEL-2 melanoma, 5.58 µM; in the experiment on SK-MEL-28 melanoma it was 3.89 µM; in the experiment with SNB-19 CNS it was 9.29 µM; in the experiment on UACC-257 melanoma, 5.04 µM; with UACC-62 melanoma it was 14.5 µM.

`C=C[C@]1(O[Si](C)(C)C)C[C@@]2(C(=O)OCC)C(O)C(=O)N3CCc4cc(OC)c(OC)cc4[C@]312` (some centres not stated): the TGI in the experiment on A549 NSCLC, in the experiment on EKVX NSCLC, in the experiment with HCT-116 colon, in the experiment on HS 578T breast, with HT29 colon and in the experiment on IGROV1 ovarian was above 100 µM each time. The TGI with LOX IMVI melanoma, in the experiment on MDA-MB-231 breast, in the experiment on MDA-MB-435, in the experiment with MDA-N, in the experiment on NCI/ADR-RES ovarian and with OVCAR-3 ovarian was above 100 µM each time. In addition, the TGI with RPMI-8226 leukemia, with SK-MEL-2 melanoma, in the experiment on SK-MEL-28 melanoma, in the experiment on SN12C renal, in the experiment with SNB-19 CNS and in the experiment with UACC-257 melanoma was above 100 µM throughout. The compound further yielded a TGI in the experiment on UACC-62 melanoma above 100 µM.

Regarding `C[C@H]1C[C@H]2[C@@H]3CCC4=CC(=O)C=C[C@]4(C)C3=CC[C@]2(C)[C@@]1(O)C(=O)CO`, the TGI in the experiment on A549 NSCLC, in the experiment on EKVX NSCLC, in the experiment with HCT-116 colon, with HS 578T breast, in the experiment on HT29 colon and in the experiment on IGROV1 ovarian was above 100 µM in each case. Moreover, the TGI with LOX IMVI melanoma, with MDA-MB-231 breast, with MDA-MB-435, with MDA-N, with NCI-H522 lung and in the experiment on NCI/ADR-RES ovarian was above 100 µM in each case. Further, the TGI with RPMI-8226 leukemia, in the experiment on SK-MEL-2 melanoma, with SK-MEL-28 melanoma, in the experiment on SN12C renal, in the experiment on SNB-19 CNS and in the experiment with UACC-257 melanoma was above 100 µM throughout. The same compound had a TGI in the experiment with UACC-62 melanoma above 100 µM.

In the case of `COc1ccc(-n2c(C)nc3ccc(NC4OC(CO)C(O)C(O)C4O)cc3c2=O)cc1` (configuration not stated), the TGI in the experiment on EKVX NSCLC, in the experiment with HCT-116 colon, in the experiment on HS 578T breast, with HT29 colon, in the experiment on IGROV1 ovarian and with LOX IMVI melanoma was above 100 µM throughout. In addition, the TGI with MDA-MB-231 breast, in the experiment with MDA-MB-435, in the experiment with MDA-N, with NCI-H522 lung, in the experiment on NCI/ADR-RES ovarian and in the experiment with OVCAR-3 ovarian was above 100 µM each time. Moreover, the TGI with RPMI-8226 leukemia, with SK-MEL-2 melanoma, with SK-MEL-28 melanoma, in the experiment on SN12C renal, with SNB-19 CNS and in the experiment with UACC-257 melanoma was above 100 µM in each case. The compound further had a TGI with UACC-62 melanoma above 100 µM.

For `c1cc(CN2CCNCCNCCNCC2)cc(CN2CCNCCNCCNCC2)c1`, the TGI in the experiment on A549 NSCLC, in the experiment with EKVX NSCLC, in the experiment with HCT-116 colon, with HS 578T breast, with HT29 colon and with IGROV1 ovarian was above 100 µM throughout. For the same compound, the TGI with LOX IMVI melanoma, in the experiment with MDA-MB-231 breast, in the experiment with MDA-MB-435, in the experiment with MDA-N, in the experiment with NCI/ADR-RES ovarian and with OVCAR-3 ovarian was above 100 µM each time. Moreover, the TGI with RPMI-8226 leukemia, in the experiment on SK-MEL-2 melanoma, with SK-MEL-28 melanoma, in the experiment with SN12C renal, with SNB-19 CNS and in the experiment with UACC-257 melanoma was above 100 µM each time. The compound also registered a TGI with UACC-62 melanoma above 100 µM.

Turning to `Nc1ccc(-c2nc3ccc(F)cc3s2)cc1I`, the TGI in the experiment on A549 NSCLC, in the experiment with EKVX NSCLC, in the experiment with HCT-116 colon, in the experiment with HS 578T breast, in the experiment with HT29 colon and in the experiment on IGROV1 ovarian was above 100 µM in each case. Moreover, the TGI in the experiment on LOX IMVI melanoma, in the experiment on MDA-MB-231 breast, with MDA-MB-435, in the experiment with MDA-N, in the experiment on NCI-H522 lung and in the experiment on NCI/ADR-RES ovarian was above 100 µM in each case. In addition, the TGI with RPMI-8226 leukemia, with SK-MEL-2 melanoma, in the experiment with SK-MEL-28 melanoma, with SN12C renal, in the experiment on SNB-19 CNS and in the experiment with UACC-257 melanoma was above 100 µM throughout. In the experiment with UACC-62 melanoma, the TGI was above 100 µM.

Turning to `O=[N+]([O-])/C=C/c1cn(CCCCCCCCCCCCn2cc(/C=C/[N+](=O)[O-])c3ccccc32)c2ccccc12`, the TGI in the experiment on A549 NSCLC, in the experiment on EKVX NSCLC, in the experiment with HCT-116 colon, in the experiment on HS 578T breast, in the experiment on HT29 colon and in the experiment on IGROV1 ovarian was above 100 µM throughout. The TGI in the experiment on LOX IMVI melanoma, with MDA-MB-231 breast, in the experiment with MDA-MB-435, with MDA-N, in the experiment with NCI-H522 lung and with NCI/ADR-RES ovarian was above 100 µM throughout. Moreover, the TGI in the experiment with OVCAR-3 ovarian, in the experiment on RPMI-8226 leukemia, with SK-MEL-2 melanoma, in the experiment with SK-MEL-28 melanoma, in the experiment with SN12C renal and with UACC-257 melanoma was above 100 µM throughout. The compound also registered a TGI in the experiment with UACC-62 melanoma above 100 µM.

Source of the values: PubChem BioAssay (NCI).
